Measurements reported in PMC7403104 (Antiviral Research, 2020).

What was measured:
[1] = tested on: six flaviviral polymerases (NS5 proteins of DENV3, TBEV, JEV, WNV, ZIKV, YFV); assay type: biochemical, flaviviruses
[2] = biological target: YFV polymerase (NS5 RdRp) (Yellow fever virus, UniProt P03314); experiment: biochemical
[3] = tested on: flaviviral polymerases (DENV3, TBEV, JEV, WNV, ZIKV, YFV); assay type: biochemical, flaviviruses

Chain of YFV polymerase (NS5 RdRp) (P03314 2507-3411 limits assumed): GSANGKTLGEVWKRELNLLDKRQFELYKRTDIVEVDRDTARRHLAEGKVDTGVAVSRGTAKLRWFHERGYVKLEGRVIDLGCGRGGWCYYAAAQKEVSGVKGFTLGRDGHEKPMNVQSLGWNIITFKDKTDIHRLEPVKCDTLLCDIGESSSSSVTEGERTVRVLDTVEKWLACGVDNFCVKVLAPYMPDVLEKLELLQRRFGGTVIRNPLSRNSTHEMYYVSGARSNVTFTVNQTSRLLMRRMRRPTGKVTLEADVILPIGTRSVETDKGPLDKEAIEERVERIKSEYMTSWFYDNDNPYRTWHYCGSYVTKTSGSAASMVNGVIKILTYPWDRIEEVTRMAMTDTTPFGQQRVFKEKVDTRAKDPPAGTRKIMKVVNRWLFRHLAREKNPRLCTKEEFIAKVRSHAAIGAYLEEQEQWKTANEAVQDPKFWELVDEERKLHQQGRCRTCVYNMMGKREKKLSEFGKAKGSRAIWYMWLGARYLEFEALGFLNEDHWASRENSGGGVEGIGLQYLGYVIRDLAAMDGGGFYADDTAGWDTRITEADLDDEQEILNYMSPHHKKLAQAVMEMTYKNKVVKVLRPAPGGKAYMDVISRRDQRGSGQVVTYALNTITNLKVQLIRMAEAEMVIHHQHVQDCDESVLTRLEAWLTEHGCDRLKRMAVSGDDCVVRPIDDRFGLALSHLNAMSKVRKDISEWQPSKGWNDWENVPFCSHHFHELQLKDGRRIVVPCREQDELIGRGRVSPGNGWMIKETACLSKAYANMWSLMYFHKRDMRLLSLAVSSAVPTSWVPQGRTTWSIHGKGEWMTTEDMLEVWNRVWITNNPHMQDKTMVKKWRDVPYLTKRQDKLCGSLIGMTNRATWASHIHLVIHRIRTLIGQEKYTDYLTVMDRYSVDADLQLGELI

With `CCC(CC)COC(=O)[C@H](C)N[P@](=O)(OC[C@H]1O[C@@](C#N)(c2ccc3c(N)ncnn23)[C@H](O)[C@@H]1O)Oc1ccccc1` [remdesivir, Remdesivir] the “incorporation into newly synthesized RNA chain / chain termination” value [1] was “able to incorporate several (five) remdesivir molecules into the newly synthesized RNA chain and finish the primer elongation reaction”, the IC50 [2] was 260 ± 30 nM and the “IC50s range in words, flaviviral RdRps” value [3] was “hundreds of nanomolar to single digit micromolar”. It also gave an IC50 ([3]; read-out: IC50 range, all the tested flaviviral polymerases) of 200 to 2200 nM.
